Results on four molecules are retold here after patent US12252524B2, “GIP/GLP1 co-agonist compounds” (Eli Lilly and Company, priority 2018, dated 2025).

As usually defined, the Ki is the equilibrium dissociation constant of an inhibitor or competing ligand from its target. In general, EC50 refers to the concentration needed to bring the measured effect to its halfway point.

Molecules are shown by their SMILES. Numbered stars: 1 amine (or outer) side, 2 acyl side, 3 side chain; on linkers, the order of the positions; unused ones are H or OH. Square brackets hold non-standard residues; d marks the D form. Side chains are listed from the residue outwards. Peptide text beside a SMILES is read from it. * marks the point of attachment. C20 diacid = O=C(O)CCCCCCCCCCCCCCCCCCC(=O)*; C18 diacid = O=C(O)CCCCCCCCCCCCCCCCC(=O)*; αMePhe(2-F) = C[C@](N)(Cc1ccccc1F)C(=O)O; γGlu = O=C(O)[C@H](CCC(=O)[*:2])N[*:1]; αMeF = C[C@](N)(Cc1ccccc1)C(=O)O; αMeL = CC(C)C[C@](C)(N)C(=O)O; AEEA = NCCOCCOCC(=O)O; Aib = CC(C)(N)C(=O)O

One assay addresses T1, human GIP receptor (Homo sapiens, UniProt P48546).
T1 construct: expressed in transfected cells; crude membranes
T1 sequence (P48546 22-466): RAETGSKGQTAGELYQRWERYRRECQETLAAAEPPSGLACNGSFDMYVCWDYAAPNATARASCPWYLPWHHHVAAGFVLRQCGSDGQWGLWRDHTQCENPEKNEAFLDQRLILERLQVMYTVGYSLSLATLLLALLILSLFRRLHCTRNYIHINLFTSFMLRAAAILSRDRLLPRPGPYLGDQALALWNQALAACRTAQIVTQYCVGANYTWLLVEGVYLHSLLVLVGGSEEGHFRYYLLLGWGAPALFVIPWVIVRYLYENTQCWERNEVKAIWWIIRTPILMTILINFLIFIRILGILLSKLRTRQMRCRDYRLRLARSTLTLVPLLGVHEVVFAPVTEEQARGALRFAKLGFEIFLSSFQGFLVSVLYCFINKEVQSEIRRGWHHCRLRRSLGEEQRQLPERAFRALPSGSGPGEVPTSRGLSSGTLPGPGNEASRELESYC
The assay is described as follows: [125I]-GIP binding (SPA), human GIP receptor. The following applies: read-out: hGIPR Ki, nM (SEM, n).

For the next assay, the target named is T2, human Gcg receptor (Homo sapiens, UniProt P47871).
T2 construct: expressed in transfected cells; crude membranes
The assay is described as follows: [125I]-Glucagon binding (SPA), human Gcg receptor. The following applies: read-out: hGLcgR Ki, nM (SEM, n). The gist of the method:
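Cell pellets were lysed in hypotonic Tris buffer, pH 7.5, homogenized, and spun at low then high speed to give crude membranes. Ki was derived from the fitted IC50.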

In a further assay the target is human GLP-1R (Homo sapiens, UniProt P43220). The assay can be described thus: [125I]-GLP-1 binding (SPA), human GLP-1 receptor. Also on record: expressed in transfected cells; crude membranes. To be noted: read-out: hGLP1R Ki, (nM) (SEM, n). The essentials: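 Crude-membrane binding assay; one membrane prep included 1 mM MgCl2 and 25 units/ml DNAse I during lysis. Assay buffer at pH 7.4 contains 0.1% (w/v) bacitracin and 0.003% (w/v) TWEEN-20. Ki is reported as geometric mean.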

Assay [1] has as its target T3, gastric inhibitory peptide receptor (GIPR) (Homo sapiens, UniProt P48546).
T3 sequence (P48546 22-466): T1 sequence (P48546 22-466)
The assay can be described thus: cAMP pharmacological functional assay in presence of casein, hGIPR. Format: cell-based. To be noted: HEK293 cells expressing hGIPR, 0.1% Casein, geometric mean; read-out: hGIPR cAMP Rel EC50 nM (SEM, n).

Assay [2] addresses human GLP-1 receptor (GLP-1R) (Homo sapiens, UniProt P43220). The assay is described as follows: cAMP pharmacological functional assay in presence of casein, hGLP-1R. Format: cell-based. The following applies: HEK293 cells expressing hGLP-1R, 0.1% Casein, geometric mean; read-out: hGLP1R cAMP Rel EC50 nM (SEM, n).

T2 sequence (P47871 26-477): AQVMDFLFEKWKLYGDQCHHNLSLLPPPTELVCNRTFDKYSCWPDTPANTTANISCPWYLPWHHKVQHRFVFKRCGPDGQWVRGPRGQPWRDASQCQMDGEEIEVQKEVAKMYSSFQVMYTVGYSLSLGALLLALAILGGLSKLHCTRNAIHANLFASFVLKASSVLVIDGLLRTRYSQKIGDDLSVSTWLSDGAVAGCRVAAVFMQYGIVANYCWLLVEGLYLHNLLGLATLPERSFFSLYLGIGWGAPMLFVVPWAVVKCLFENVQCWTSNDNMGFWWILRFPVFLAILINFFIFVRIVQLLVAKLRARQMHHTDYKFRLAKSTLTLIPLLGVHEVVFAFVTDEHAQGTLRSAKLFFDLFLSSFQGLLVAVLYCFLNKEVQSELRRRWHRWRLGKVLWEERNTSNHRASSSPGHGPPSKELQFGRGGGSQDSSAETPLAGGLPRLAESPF
human GLP-1R, sequence (P43220 24-463): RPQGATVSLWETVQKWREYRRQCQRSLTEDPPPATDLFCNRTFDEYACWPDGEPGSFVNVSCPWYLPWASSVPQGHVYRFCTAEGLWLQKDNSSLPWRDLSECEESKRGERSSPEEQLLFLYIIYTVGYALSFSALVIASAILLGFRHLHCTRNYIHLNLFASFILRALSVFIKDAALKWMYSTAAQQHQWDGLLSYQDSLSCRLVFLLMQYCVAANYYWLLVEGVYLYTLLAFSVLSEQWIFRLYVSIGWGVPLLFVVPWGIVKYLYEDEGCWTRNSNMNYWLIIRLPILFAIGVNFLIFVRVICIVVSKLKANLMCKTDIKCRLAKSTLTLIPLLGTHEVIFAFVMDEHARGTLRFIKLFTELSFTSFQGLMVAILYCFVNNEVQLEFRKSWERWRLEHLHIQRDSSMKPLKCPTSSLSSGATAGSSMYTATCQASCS
human GLP-1 receptor (GLP-1R), sequence (P43220 24-463): as above

On to `CC[C@H](C)[C@H](NC(=O)[C@H](CC(C)C)NC(=O)[C@H](Cc1ccc(O)cc1)NC(=O)[C@@H](CCC(=O)O)NC(=O)[C@@H](NC(=O)[C@H](Cc1ccccc1)NC(=O)[C@H](CCC(=O)O)NC(=O)C(C)(C)NC(=O)[C@H](CCC(N)=O)NC(=O)[C@H](C)NC(=O)[C@H](CCCCNC(=O)COCCOCCNC(=O)COCCOCCNC(=O)CC[C@H](NC(=O)CCCCCCCCCCCCCCCCCCC(=O)O)C(=O)O)NC(=O)[C@H](CCCCN)NC(=O)[C@H](CC(=O)O)NC(=O)[C@H](CC(C)C)NC(=O)[C@](C)(CC(C)C)NC(=O)[C@@H](NC(=O)[C@H](CO)NC(=O)[C@H](Cc1ccc(O)cc1)NC(=O)[C@H](CC(=O)O)NC(=O)[C@H](CO)NC(=O)[C@@H](NC(=O)[C@](C)(Cc1ccccc1F)NC(=O)[C@@H](NC(=O)CNC(=O)[C@H](CCC(=O)O)NC(=O)C(C)(C)NC(=O)[C@@H](N)Cc1ccc(O)cc1)[C@@H](C)O)[C@@H](C)O)[C@@H](C)CC)[C@@H](C)CC)C(=O)N[C@@H](CCC(=O)O)C(=O)NCC(=O)NCC(=O)N1CCC[C@H]1C(=O)N[C@@H](CO)C(=O)N[C@@H](CO)C(=O)NCC(=O)N[C@@H](C)C(=O)N1CCC[C@H]1C(=O)N1CCC[C@H]1C(=O)N1CCC[C@H]1C(=O)N[C@@H](CO)C(N)=O` [Example 212] (H-Y[Aib]EGT[αMePhe(2-F)]TSDYSI[αMeL]LDKK([AEEA-AEEA-γGlu-C20 diacid])AQ[Aib]EFI[dE]YLIEGGPSSGAPPPS-NH2), for which the Ki on human GIP receptor stood at 0.0978 nM; on human Gcg receptor, 205 nM; on human GLP-1R, 2.76 nM. Also, the figures for the EC50 in assay [1] and in assay [2] were 0.0501 nM and 0.0572 nM, respectively.

Turning to `CC[C@H](C)[C@H](NC(=O)[C@H](CC(C)C)NC(=O)[C@H](Cc1ccc(O)cc1)NC(=O)[C@@H](CCC(=O)O)NC(=O)[C@@H](NC(=O)[C@H](Cc1ccccc1)NC(=O)[C@H](CCC(=O)O)NC(=O)C(C)(C)NC(=O)[C@H](CCC(N)=O)NC(=O)[C@H](C)NC(=O)[C@H](CCCCNC(=O)COCCOCCNC(=O)COCCOCCNC(=O)CC[C@H](NC(=O)CCCCCCCCCCCCCCCCC(=O)O)C(=O)O)NC(=O)[C@H](CCC(=O)O)NC(=O)[C@H](CC(=O)O)NC(=O)[C@H](CC(C)C)NC(=O)[C@](C)(CC(C)C)NC(=O)[C@@H](NC(=O)[C@H](CO)NC(=O)[C@H](Cc1ccc(O)cc1)NC(=O)[C@H](CC(=O)O)NC(=O)[C@H](CO)NC(=O)[C@@H](NC(=O)[C@](C)(Cc1ccccc1)NC(=O)[C@@H](NC(=O)CNC(=O)[C@H](CCC(=O)O)NC(=O)C(C)(C)NC(=O)[C@@H](N)Cc1ccc(O)cc1)[C@@H](C)O)[C@@H](C)O)[C@@H](C)CC)[C@@H](C)CC)C(=O)N[C@@H](CCC(=O)O)C(=O)NCC(=O)NCC(=O)N1CCC[C@H]1C(=O)N[C@@H](CO)C(=O)N[C@@H](CO)C(=O)NCC(=O)N[C@@H](C)C(=O)N1CCC[C@H]1C(=O)N1CCC[C@H]1C(=O)N1CCC[C@H]1C(=O)N[C@@H](CO)C(N)=O` [Example 213] (H-Y[Aib]EGT[αMeF]TSDYSI[αMeL]LDEK([AEEA-AEEA-γGlu-C18 diacid])AQ[Aib]EFI[dE]YLIEGGPSSGAPPPS-NH2), the Ki was determined as 0.365 nM on human GIP receptor, 544 nM on human Gcg receptor and 2.75 nM at human GLP-1R. Moreover, the EC50 in assay [1] was 0.0523 nM; in assay [2] it was 0.071 nM.

As for `CC[C@H](C)[C@H](NC(=O)[C@H](CC(C)C)NC(=O)[C@H](Cc1ccc(O)cc1)NC(=O)[C@@H](CCC(=O)O)NC(=O)[C@@H](NC(=O)[C@H](Cc1ccccc1)NC(=O)[C@H](CCC(=O)O)NC(=O)C(C)(C)NC(=O)[C@H](CCC(N)=O)NC(=O)[C@H](C)NC(=O)[C@H](CCCCNC(=O)COCCOCCNC(=O)COCCOCCNC(=O)CCCCCCCCCCCCCCCCC(=O)O)NC(=O)[C@H](CCC(=O)O)NC(=O)[C@H](CC(=O)O)NC(=O)[C@H](CC(C)C)NC(=O)[C@](C)(CC(C)C)NC(=O)[C@@H](NC(=O)[C@H](CO)NC(=O)[C@H](Cc1ccc(O)cc1)NC(=O)[C@H](CC(=O)O)NC(=O)[C@H](CO)NC(=O)[C@@H](NC(=O)[C@](C)(Cc1ccccc1F)NC(=O)[C@@H](NC(=O)CNC(=O)[C@H](CCC(=O)O)NC(=O)C(C)(C)NC(=O)[C@@H](N)Cc1ccc(O)cc1)[C@@H](C)O)[C@@H](C)O)[C@@H](C)CC)[C@@H](C)CC)C(=O)N[C@@H](CCC(=O)O)C(=O)NCC(=O)NCC(=O)N1CCC[C@H]1C(=O)N[C@@H](CO)C(=O)N[C@@H](CO)C(=O)NCC(=O)N[C@@H](C)C(=O)N1CCC[C@H]1C(=O)N1CCC[C@H]1C(=O)N1CCC[C@H]1C(=O)N[C@@H](CO)C(N)=O` [Example 214] (H-Y[Aib]EGT[αMePhe(2-F)]TSDYSI[αMeL]LDEK([AEEA-AEEA-C18 diacid])AQ[Aib]EFI[dE]YLIEGGPSSGAPPPS-NH2), the Ki on human GIP receptor was determined as 0.0304 nM; at human Gcg receptor it was 126 nM; at human GLP-1R, 1.99 nM. In addition, the results for the EC50 in assay [1] and in assay [2] were 0.0251 nM and 0.0221 nM, respectively.

`CC[C@H](C)[C@H](NC(=O)[C@H](CC(C)C)NC(=O)[C@H](Cc1ccc(O)cc1)NC(=O)[C@@H](CCC(=O)O)NC(=O)[C@@H](NC(=O)[C@H](Cc1ccccc1)NC(=O)[C@H](CCC(=O)O)NC(=O)C(C)(C)NC(=O)[C@H](CCC(N)=O)NC(=O)[C@H](C)NC(=O)[C@H](CCCCNC(=O)COCCOCCNC(=O)COCCOCCNC(=O)CCCCCCCCCCCCCCCCCCC(=O)O)NC(=O)[C@H](CCC(=O)O)NC(=O)[C@H](CC(=O)O)NC(=O)[C@H](CC(C)C)NC(=O)[C@](C)(CC(C)C)NC(=O)[C@@H](NC(=O)[C@H](CO)NC(=O)[C@H](Cc1ccc(O)cc1)NC(=O)[C@H](CC(=O)O)NC(=O)[C@H](CO)NC(=O)[C@@H](NC(=O)[C@](C)(Cc1ccccc1F)NC(=O)[C@@H](NC(=O)CNC(=O)[C@H](CCC(=O)O)NC(=O)C(C)(C)NC(=O)[C@@H](N)Cc1ccc(O)cc1)[C@@H](C)O)[C@@H](C)O)[C@@H](C)CC)[C@@H](C)CC)C(=O)N[C@@H](CCC(=O)O)C(=O)NCC(=O)NCC(=O)N1CCC[C@H]1C(=O)N[C@@H](CO)C(=O)N[C@@H](CO)C(=O)NCC(=O)N[C@@H](C)C(=O)N1CCC[C@H]1C(=O)N1CCC[C@H]1C(=O)N1CCC[C@H]1C(=O)N[C@@H](CO)C(N)=O` [Example 215] (H-Y[Aib]EGT[αMePhe(2-F)]TSDYSI[αMeL]LDEK([AEEA-AEEA-C20 diacid])AQ[Aib]EFI[dE]YLIEGGPSSGAPPPS-NH2): the values for the Ki at human GIP receptor, at human Gcg receptor and at human GLP-1R were 0.0666 nM, 75.2 nM and 6.85 nM, respectively. The EC50 in assay [1] worked out at 0.0525 nM; in assay [2], 0.0529 nM.
